The values that follow are results of earlier work, collected in patent publication US5705486A, “Isolation of novel peptides from green barley leaf extract and use same to inhibit human platelet aggregation” (Hagiwara; Yoshihide, priority 1996, dated 1998).

This data set has as its system rat anterior pituitary cells. The note with it: in vitro.

In the case of `Cc1c(C)c2c(c(C)c1OC(=O)CCC(=O)O)CC[C@@](C)(CCC[C@H](C)CCC[C@H](C)CCCC(C)C)O2` [α-tocopherol succinate], the “release of growth hormone and/or prolactin from rat anterior pituitary cells” value (Badamchian et al 1994) is on record as “enhances the release”. In addition, where the note is “Badamchian et al 1995”, the “prolactin release from rat anterior pituitary cells” value was “significant increase”.
